The record followed here is patent publication US10626081B2, “Farnesoid X receptor agonists and uses thereof” (Metacrine, Inc., priority 2015, dated 2020).

Molecules are shown by their SMILES.

Assay [1] deals with T1, FXR (Homo sapiens, UniProt Q96RI1).
T1 construct: expressed in transfected cells; host or cells: CV-1 cells
T1 sequence (Q96RI1 1-486): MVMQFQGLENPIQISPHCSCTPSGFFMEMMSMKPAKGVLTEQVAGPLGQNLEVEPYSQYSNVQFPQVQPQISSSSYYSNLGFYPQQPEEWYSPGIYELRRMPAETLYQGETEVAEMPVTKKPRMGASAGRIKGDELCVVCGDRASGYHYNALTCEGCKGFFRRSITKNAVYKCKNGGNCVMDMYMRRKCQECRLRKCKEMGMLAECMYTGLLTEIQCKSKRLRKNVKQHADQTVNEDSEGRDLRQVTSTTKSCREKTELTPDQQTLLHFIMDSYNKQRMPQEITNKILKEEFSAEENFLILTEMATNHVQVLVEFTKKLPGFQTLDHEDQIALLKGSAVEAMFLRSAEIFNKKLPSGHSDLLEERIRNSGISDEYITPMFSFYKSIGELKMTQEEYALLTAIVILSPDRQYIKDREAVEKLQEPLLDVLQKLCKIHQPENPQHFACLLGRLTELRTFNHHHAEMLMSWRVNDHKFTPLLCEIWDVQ
T1 sequence (P19793 1-462 partner): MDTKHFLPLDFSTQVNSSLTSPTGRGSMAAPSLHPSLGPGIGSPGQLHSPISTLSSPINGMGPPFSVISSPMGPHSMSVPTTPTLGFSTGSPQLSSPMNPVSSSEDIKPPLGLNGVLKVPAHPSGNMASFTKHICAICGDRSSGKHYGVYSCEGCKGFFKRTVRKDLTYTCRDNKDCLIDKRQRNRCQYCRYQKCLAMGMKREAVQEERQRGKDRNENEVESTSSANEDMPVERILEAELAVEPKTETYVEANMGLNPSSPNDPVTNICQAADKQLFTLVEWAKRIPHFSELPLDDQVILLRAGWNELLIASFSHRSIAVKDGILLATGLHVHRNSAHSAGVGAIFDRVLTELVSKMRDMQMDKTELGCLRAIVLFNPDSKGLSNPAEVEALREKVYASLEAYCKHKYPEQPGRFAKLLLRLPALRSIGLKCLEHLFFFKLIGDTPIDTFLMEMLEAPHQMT
Nature of the assay: In Vitro FXR Assay (TK): TK-ECRE-luc reporter in transfected CV-1 cells. The class given is cell-based. The conditions noted are these: CV-1 cells transfected with hFXR, hRXR, 18 h incubation, luminescence. The procedure, abridged: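 CV-1 cells in charcoal-stripped FBS medium were transiently cotransfected with hFXR, hRXR, TK-ECRE-luc and pCMX-YFP plasmids. After 18 h, compounds serially diluted in DMSO were added for 18 h at 37 °C, 5% CO2, then cells were lysed and luminescence read.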

Assay [2] deals with T1, FXR. The assay is described as follows: In Vitro FXR Assay (PGL3): luciferase reporter in transfected CV-1 cells. The class given is cell-based. The conditions noted are these: CV-1 cells transfected with hFXR, hRXR, PGL3-ECRE*6-luc; 18 h incubation; luminescence. The essentials:
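CV-1 cells in charcoal-stripped FBS were transiently co-transfected with full-length human FXR, RXR, an ECRE×6-luciferase reporter, β-gal and YFP plasmids. Transfected cells were reseeded onto half-log compound dilutions and incubated 18 h. Luciferase luminescence was read after lysis, and EC50 was determined.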
In general terms: Reporter assays use an easily measured gene product as a stand-in for the process of interest.

A word on the EC50: it is the concentration needed to bring the measured effect to its halfway point.

Consider `COC(=O)/C=C/c1cccc(N(Cc2ccc(-c3ccc(C(C)C)cc3)cc2)C(=O)C2CCCCC2)c1` [compound 70, (E)-Methyl 3-(3-(N-((4′-isopropyl-[1,1′-biphenyl]-4-yl)methyl)cyclohexanecarboxamido)phenyl) acrylate], for which, on FXR [1], the EC50 fell in the range of 1 to 10 µM. Further, at FXR [2], the “Cmpd/Fex (ratio of the EC50 for the test compound relative to the EC50 of the Fexaramine control)” value is reported as “+++ (‘+++’ means Cmpd/Fex < 10)”.
In turn, `C=C(C)c1ccc(-c2ccc(CN(C(=O)C3CCCCC3)c3cccc(/C=C/C(=O)OC)c3)cc2)cc1` [compound 71, (E)-Methyl 3-(3-(N-((4′-(prop-1-en-2-yl)-[1,1′-biphenyl]-4-yl)methyl)cyclohexanecarboxamido)phenyl) acrylate] came in with an EC50 at FXR [1] of 1 to 10 µM. In addition, on FXR [2], the “Cmpd/Fex (ratio of the EC50 for the test compound relative to the EC50 of the Fexaramine control)” value is “+++ (‘+++’ means Cmpd/Fex < 10)”.
For `COC(=O)/C=C/c1cccc(N(Cc2ccc(-c3ccc(N(C)C)c(C#N)c3)cc2)C(=O)C2CCCCC2)c1` [compound 72, (E)-Methyl 3-(3-(N-((3′-cyano-4′-(dimethylamino)-[1,1′-biphenyl]-4-yl)methyl)cyclohexanecarboxamido)phenyl) acrylate] the same measures were ≤ 1 µM and “+++ (‘+++’ means Cmpd/Fex < 10)”.
Consider `COC(=O)/C=C/c1cccc(N(Cc2ccc(-c3ccc(N(C)C)c(F)c3)cc2)C(=O)C2CCCCC2)c1` [compound 73, (E)-Methyl 3-(3-(N-((4′-(dimethylamino)-3′-fluoro-[1,1′-biphenyl]-4-yl)methyl)cyclohexanecarboxamido)phenyl) acrylate], for which the EC50 on FXR [1] was ≤ 1 µM. Moreover, the “Cmpd/Fex (ratio of the EC50 for the test compound relative to the EC50 of the Fexaramine control)” value at FXR [2] was “+++ (‘+++’ means Cmpd/Fex < 10)”.
For `COC(=O)/C=C/c1cccc(N(Cc2ccc(-c3ccc4c(c3)ncn4C)cc2)C(=O)C2CCCCC2)c1` [compound 74, (E)-Methyl 3-(3-(N-(4-(1-methyl-1H-benzo[d]imidazol-5-yl)benzyl)cyclohexanecarboxamido)phenyl) acrylate] the same measures were 1 to 10 µM and “+ (‘+’ means Cmpd/Fex > 100)”.
The compound `COC(=O)/C=C/c1cccc(N(Cc2ccc(-c3ccc(N(C)C)c(OC)c3)cc2)C(=O)C2CCCCC2)c1` [compound 75, (E)-methyl 3-(3-(N-((4′-(dimethylamino)-3′-methoxy-[1,1′-biphenyl]-4-yl)methyl)cyclohexanecarboxamido)phenyl) acrylate] gave an EC50 on FXR [1] of 1 to 10 µM. The “Cmpd/Fex (ratio of the EC50 for the test compound relative to the EC50 of the Fexaramine control)” value at FXR [2] is recorded as “++ (‘++’ means Cmpd/Fex > 10 & < 100)”.
For `COC(=O)/C=C/c1cccc(N(Cc2ccc(N3CCOCC3)cc2)C(=O)C2CCCCC2)c1` [compound 77, (E)-Methyl 3-(3-(N-(4-morpholinobenzyl)cyclohexane-carboxamido)phenyl)acrylate] the same measures were 1 to 10 µM and “+ (‘+’ means Cmpd/Fex > 100)”.
For `COC(=O)/C=C/c1cccc(N(Cc2ccc(N3CCCCC3)cc2)C(=O)C2CCCCC2)c1` [compound 78, (E)-Methyl 3-(3-(N-(4-(piperidin-1-yl)benzyl)cyclohexanecarboxamido)phenyl) acrylate] the same measures were 1 to 10 µM and “++ (‘++’ means Cmpd/Fex > 10 & < 100)”.
For `COC(=O)/C=C/c1cccc(N(Cc2cccc3ccccc23)C(=O)C2CCCCC2)c1` [compound 80, (E)-Methyl 3-(3-(N-(naphthalen-1-ylmethyl)cyclohexanecarboxamido)phenyl) acrylate] the same measures were > 10 µM and “+ (‘+’ means Cmpd/Fex > 100)”.
In the case of `COC(=O)/C=C/c1cccc(N(Cc2ccccc2-c2ccccc2)C(=O)C2CCCCC2)c1` [compound 81, (E)-Methyl 3-(3-(N-([1,1′-biphenyl]-2-ylmethyl)cyclohexanecarboxamido)phenyl) acrylate], the half-maximal effective concentration (EC50) on FXR [1] was > 10 µM. In addition, the “Cmpd/Fex (ratio of the EC50 for the test compound relative to the EC50 of the Fexaramine control)” value on FXR [2] is on record as “+ (‘+’ means Cmpd/Fex > 100)”.
For `COC(=O)/C=C/c1cccc(N(Cc2cccc(-c3ccccc3)c2)C(=O)C2CCCCC2)c1` [compound 82, (E)-Methyl 3-(3-(N-([1,1′-biphenyl]-3-ylmethyl)cyclohexanecarboxamido)phenyl) acrylate] the same measures were > 10 µM and “+ (‘+’ means Cmpd/Fex > 100)”.
For `CC(C)OC(=O)/C=C/c1cccc(N(Cc2ccc(-c3ccc(N(C)C)cc3)cc2)C(=O)C2CCCCC2)c1` [compound 83, (E)-iso-Propyl 3-(3-(N-((4′-(dimethylamino)-[1,1′-biphenyl]-4-yl)methyl)cyclohexanecarboxamido)phenyl) acrylate] the same measures were 1 to 10 µM and “+++ (‘+++’ means Cmpd/Fex < 10)”.
For the compound `CCOC(=O)/C=C/c1cccc(N(Cc2ccc(-c3ccc(N(C)C)cc3)cc2)C(=O)C2CCCCC2)c1` [compound 84, (E)-Ethyl 3-(3-(N-((4′-(dimethylamino)-[1,1′-biphenyl]-4-yl)methyl)cyclohexanecarboxamido)phenyl) acrylate], on FXR [1], the EC50 was ≤ 1 µM. Further, the “Cmpd/Fex (ratio of the EC50 for the test compound relative to the EC50 of the Fexaramine control)” value on FXR [2] is reported as “+++ (‘+++’ means Cmpd/Fex < 10)”.
On to `CCc1cc(/C=C/C(=O)OC)cc(N(Cc2ccc(-c3ccc(N(C)C)cc3)cc2)C(=O)C2CCCCC2)c1` [compound 85, (E)-Methyl 3-(3-(N-((4′-(dimethylamino)-[1,1′-biphenyl]-4-yl)methyl)cyclohexanecarboxamido)-5-ethylphenyl)acrylate], for which the EC50 at FXR [1] is 1 to 10 µM. On FXR [2], the “Cmpd/Fex (ratio of the EC50 for the test compound relative to the EC50 of the Fexaramine control)” value is given as “+++ (‘+++’ means Cmpd/Fex < 10)”.
With `CN(C)c1ccc(-c2ccc(CN(C(=O)C3CCCCC3)c3cccc(/C=C/C(=O)OCCO)c3)cc2)cc1` [compound 86, (E)-2-Hydroxyethyl 3-(3-(N-((4′-(dimethylamino)-[1,1′-biphenyl]-4-yl)methyl)cyclohexanecarboxamido)phenyl) acrylate], on FXR [1], the EC50 is 1 to 10 µM. In addition, the “Cmpd/Fex (ratio of the EC50 for the test compound relative to the EC50 of the Fexaramine control)” value at FXR [2] is listed as “+++ (‘+++’ means Cmpd/Fex < 10)”.
For `COC(=O)C#Cc1cccc(N(Cc2ccc(-c3ccc(N(C)C)cc3)cc2)C(=O)C2CCCCC2)c1` [compound 87, Methyl 3-(3-(N-((4′-(Dimethylamino)-[1,1′-biphenyl]-4-yl)methyl)cyclohexanecarboxamido)phenyl) propiolate] the same measures were ≤ 1 µM and “+++ (‘+++’ means Cmpd/Fex < 10)”.
For `CN(C)c1ccc(-c2ccc(CN(C(=O)C3CCCCC3)c3cccc(/C=C/C(=O)O)c3)cc2)cc1` [compound 88, (E)-3-(3-(N-((4′-(dimethylamino)-[1,1′-biphenyl]-4-yl)methyl)cyclohexanecarboxamido)phenyl)acrylic acid] the same measures were > 10 µM and “+ (‘+’ means Cmpd/Fex > 100)”.
